The record followed here is patent US5310659A, “GL-7ACA acylase” (priority 1990, dated 1994).

Where two headings read alike, the source gives them in different places.

Data set [1] addresses T1, GL-7ACA acylase J1 of Bacillus laterosporus J1 (SEQ ID NO: 3), purified from recombinant E. coli (Brevibacillus laterosporus, UniProt Q45289). Put plainly: Inhibition by reaction products (competitive), Ki determination by HPLC assay. Particulars: substrate GL-7ACA, 37° C. Format: biochemical. The procedure:
Inhibitory activity of reaction products, namely 7-ACA and glutaric acid on the enzyme activity of GL-7ACA acylase J1 was examined. The enzyme activity was assayed in the presence of various concentrations of 7-ACA or glutaric acid. For determination of Ki of 7-ACA, reaction mixture (200 μl) containing 20 μmole of glycine buffer (pH 9), 0.39-2.0 μmole of GL-7ACA, 0.3-0.48 μmole of 7-ACA and 11 μg of enzyme was used and the reaction was performed at 37° C. for 6 min. For determination of Ki of glutaric acid, reaction mixture (200 μl) containing (a) 20 μmole of glycine buffer (pH 9), 0.26-3.0 μmol of GL-7ACA, 2-10 μmol of glutaric acid and 11 μg of the enzyme (b) 20 μmol of Tris-HCl buffer (pH 8), 0.05-1.0 μmol of GL-7ACA, […] of glutaric acid and 5 μg of the enzyme was used. The reaction was performed at 37° C. for 3 min. […] Ki values were calculated from the apparent Michaelis constants (Kmapp), Km and Vmax. Ki values of 7-ACA was 2.0 mM.

Data set [2] addresses T1, GL-7ACA acylase J1 of Bacillus laterosporus J1 (SEQ ID NO: 3), purified from recombinant E. coli. Put plainly: biochemical. Particulars: for Relative activity (%): enzyme treated 37° C. 3 hours in 0.1 M Tris-HCl (pH 8), residual activity vs blank-treated enzyme, substrate GL-7ACA. The procedure:
Effect of p-chloromercuribenzoate (pCMB, Sigma Chemical Co., Ltd.), phenylmethylsulfonyl fluoride (PMSF, Sigma) and ethylenediaminetetraacetic acid (EDTA, Nacalai Tesque Inc., Japan) on the activity of GL-7ACA acylase J1 was examined as follows. Eleven μg of GL-7ACA acylase J1 was treated at 37° C. for 3 hours with 1.0 or 5.0 mM pCMB, 1.0 or 5.0 mM PMSF, or 1.0 or 5.0 mM EDTA in 200 μl of 0.1 M Tris-HCl buffer (pH 8). Residual activity of the treated enzyme was assayed by adding 22 μl of GL-7ACA (20 mg/ml) as a substrate to the mixture. The reaction was performed at 37° C for 10 min. Residual activity was expressed as a percentage compared to the activity of the enzyme treated with blank solution.

Data set [3] has as its system CC(=O)OCC1=C(C(=O)O)N2C(=O)C(NC(=O)CCCC(=O)O)[C@H]2SC1. Put plainly: Michaelis-Menten kinetics of GL-7ACA hydrolysis, HPLC assay, Lineweaver-Burk plot. The format is biochemical, Bacillus laterosporus J1. Particulars: 37° C., 2 min. The procedure: Transformant colonies were picked up and grown overnight at 30° C. in 1 ml of 2% Bouillon (Eiken Chemical Co., Ltd., Japan) supplemented with 1 mM […] (IPTG; Sigma Chemical Co., Ltd., U.S.A.). Cells were harvested by centrifugation and resulting cell pellets were used for assay. Reaction mixture (200 μl ) containing 100 mM phosphate buffer (pH 8), 2 mg of GL-7ACA and cell pellets were thoroughly mixed and incubated for 10 min at 37° C. The reaction was terminated by the addition of 200 μl of 4% acetic acid. Samples were applied to a Inertsil ODS-2 column (4.6 mm × 150 mm) (Gasukuro Kogyo Co., Ltd., Japan) and elution was performed with 0.567 g/l of Na2 HPO4, 0.36 g/l of KH2 PO4 and 2-4% methanol. 7ACA was detected with absorption at 254 nm.
The activity of the GL-7ACA acylase J1 was determined by HPLC assay. […] Specific enzyme activity was expressed as unit per mg of protein. Protein concentrations were determined by Bio-Rad protein assay kit (Bio-Rad Co., Ltd., U.S.A.) with bovine serum albumin as a standard. Maximum specific enzyme activity (Vmax) and Michaelis constant (Km) were calculated from slope and intersection which were obtained by Lineweaver-Burk plot (Cf. M. Dixon and E. C. Webb, Enzymes, Longmans, London, 1958). […]

Setting [4] is: pH 8, read-out: Relative activity (%).

T1 sequence (Q45289 entry or part of it): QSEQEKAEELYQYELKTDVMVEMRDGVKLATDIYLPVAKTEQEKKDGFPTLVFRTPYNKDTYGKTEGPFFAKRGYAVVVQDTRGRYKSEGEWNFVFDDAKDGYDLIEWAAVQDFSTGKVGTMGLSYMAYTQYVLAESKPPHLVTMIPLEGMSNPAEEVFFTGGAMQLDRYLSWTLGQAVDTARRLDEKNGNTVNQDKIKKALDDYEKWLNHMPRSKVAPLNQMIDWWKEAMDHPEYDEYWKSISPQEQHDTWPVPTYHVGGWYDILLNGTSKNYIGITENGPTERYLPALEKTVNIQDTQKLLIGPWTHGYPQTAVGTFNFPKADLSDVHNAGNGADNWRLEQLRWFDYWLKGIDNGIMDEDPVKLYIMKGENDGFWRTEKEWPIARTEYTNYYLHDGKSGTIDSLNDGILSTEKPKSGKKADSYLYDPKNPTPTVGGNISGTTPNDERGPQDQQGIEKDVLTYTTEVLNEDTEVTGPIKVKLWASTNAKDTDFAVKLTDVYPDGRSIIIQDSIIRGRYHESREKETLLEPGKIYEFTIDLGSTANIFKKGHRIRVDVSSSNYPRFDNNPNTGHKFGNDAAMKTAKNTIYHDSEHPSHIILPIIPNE

Turning to `CC(=O)OCC1=C(C(=O)O)N2C(=O)C(N)C2SC1` (centres unmarked) [7-ACA, 7-aminocephalosporanic acid], the Ki – broadly, a measure of affinity in units of concentration, obtained from inhibition or displacement – in data set [1] (glycine buffer (pH 9), 6 min, read-out: Ki of 7-ACA) came out at 2000 µM. For `O=C(O)CN(CCN(CC(=O)O)CC(=O)O)CC(=O)O` [EDTA, ethylenediaminetetraacetic acid], in data set [2] (setting [4]), the activity at 1000 µM came out at 100% and the activity at 5000 µM worked out at 102%.

As for `O=S(=O)(F)Cc1ccccc1` [PMSF, phenylmethylsulfonyl fluoride], the “Relative activity (%)” value in data set [2] (inhibitor 1 mM) was 90%; in data set [2] (inhibitor 5 mM), 78%. `O=C(O)CCCC(=O)O` [glutaric acid]: the inhibition constant (Ki) in data set [1] (0.1M Tris-HCl buffer (pH 8), 3 min, read-out: Ki of glutaric acid) is 990 µM; in data set [1] (0.1M glycine buffer (pH 9), 3 min, read-out: Ki of glutaric acid), 53000 µM. As for `O=C(O)c1cc[c]([Hg][Cl])cc1` [pCMB, p-chloromercuribenzoate], the “Relative activity (%)” value was 106% in data set [2] (inhibitor 1 mM) and 104% in data set [2] (inhibitor 5 mM). Turning to “GL-7ACA acylase J1 of Bacillus laterosporus J1 (SEQ ID NO: 3), purified from recombinant E. coli (Brevibacillus laterosporus)”, the Km (usually the substrate concentration at which the rate is half of its maximum) in data set [3] (other: 100 mM Tris-HCl buffer (pH 8), 0.16-5 mM GL-7ACA, pH 8.0) is 140 µM; in data set [3] (other: 100 mM glycine buffer (pH 9), 1.4-20 mM GL-7ACA, pH 9.0), 3200 µM.
